Data reported in ChEMBL document CHEMBL3243978, “2-(Substituted phenyl)oxazolo[4,5-b]pyridines and 2-(substituted phenyl)oxazolo[5,4-b]pyridines as nonacidic antiinflammatory agents” (J Med Chem, 1978).
≈ marks a conversion by molar mass, not a printed value.

Legend:
Rattus norvegicus [1] = organism: Rattus norvegicus; experiment: animal or person; format: functional
Description: Antiinflammatory activity in rat assessed as inhibition of carrageenan-induced foot edema at 30 mg/kg

[2] = Acute toxicity in po dosed mouse; conditions: in vivo
Rattus norvegicus [3] = organism: Rattus norvegicus; experiment: Antiarthritic activity in rat assessed as reduction in adjuvant-induced arthritic pain; format: functional
Rattus norvegicus [4] = experiment: Antiinflammatory activity in rat assessed as inhibition of carrageenan-induced foot edema; format: functional
Rattus norvegicus [5] = experiment: Toxicity in rat assessed as indomethacin-induced intestinal perforation at 256 mg/kg after 3 days; format: organism-based; parameters: dose 256 mg/kg; conditions: in vivo, 72 h
[6] = molecular target: T1, Prostaglandin E synthase (Homo sapiens) (UniProt O14684)
T1 sequence (whole entry): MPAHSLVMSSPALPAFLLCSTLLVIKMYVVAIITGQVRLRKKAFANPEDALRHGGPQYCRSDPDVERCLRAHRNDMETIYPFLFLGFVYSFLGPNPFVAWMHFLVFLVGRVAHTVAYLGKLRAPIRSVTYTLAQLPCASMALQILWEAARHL
Description: Inhibition of prostaglandin synthetase (unknown origin)

Rattus norvegicus [7] = experiment: Toxicity in rat assessed as indomethacin-induced intestinal perforation at 400 mg/kg after 3 days; format: organism-based; parameters: dose 400 mg/kg; conditions: in vivo, 72 h
Rattus norvegicus [8] = experiment: Toxicity in rat assessed as indomethacin-induced intestinal perforation at 1024 mg/kg after 3 days; format: organism-based; parameters: dose 1024 mg/kg; conditions: in vivo, 72 h

Compound	inhibition in vivo at 30 mg/kg (Rattus norvegicus [1]) [%]	further results
COc1ccc(C#N)c(-c2nc3ncccc3o2)c1	3	
Fc1ccccc1-c1nc2ncccc2o1	64	LD50 [2]: 556 mg/kg; ED50 (Mus musculus): 6 mg; ED50 (Rattus norvegicus [3]): 23 mg/kg; ED50 (Rattus norvegicus [4]): 21 mg/kg; Activity (Rattus norvegicus [5]): Non-toxic; ED50 [6]: 3 µg/mL (≈ 14 µM)
CCCCC1C(=O)N(c2ccccc2)N(c2ccccc2)C1=O [PHENYLBUTAZONE]		LD50 [2]: 555 mg/kg; ED50 (Mus musculus): 4.3 mg; ED50 (Rattus norvegicus [3]): 14 mg/kg; ED50 (Rattus norvegicus [4]): 28 mg/kg; ED50 [6]: 3 µg/mL (≈ 9.73 µM); Activity (Rattus norvegicus [7]): Non-toxic
COc1ccc(-c2nc3ncccc3o2)cc1	14	
COc1ccc(Br)c(-c2nc3ncccc3o2)c1	8	
O=[N+]([O-])c1cccc(-c2nc3ncccc3o2)c1	21	
FC(F)(F)c1cccc(-c2nc3cccnc3o2)c1	7	
FC(F)(F)c1ccccc1-c1nc2ncccc2o1	19	
Cc1cccc(-c2nc3cccnc3o2)c1	14	
CC(C)Cc1ccc(C(C)C(=O)O)cc1 (stereo unspecified) [IBUPROFEN]		LD50 [2]: 1370 mg/kg; ED50 (Mus musculus): 5 mg; ED50 (Rattus norvegicus [3]): 27 mg/kg; ED50 (Rattus norvegicus [4]): 15 mg/kg; ED50 [6]: 0.4 µg/mL (≈ 1.94 µM)
Clc1ccc(-c2nc3cccnc3o2)cc1	14	
Cc1ccccc1-c1nc2cccnc2o1	3	
N#Cc1cccc(C#N)c1-c1nc2ncccc2o1	19	
COc1cccc(-c2nc3ncccc3o2)c1	14	
COc1ccc(-c2nc3cccnc3o2)cc1	29	
Brc1cccc(-c2nc3ncccc3o2)c1	23	
Fc1cccc(-c2nc3cccnc3o2)c1	35	
c1ccc(-c2nc3cccnc3o2)cc1	55	
COc1ccc2c(c1)c(CC(=O)O)c(C)n2C(=O)c1ccc(Cl)cc1 [INDOMETHACIN]		LD50 [2]: 50 mg/kg; ED50 (Mus musculus): 2.7 mg; ED50 (Rattus norvegicus [3]): 0.27 mg/kg; ED50 (Rattus norvegicus [4]): 2.7 mg/kg; ED50 [6]: 0.1 µg/mL (≈ 0.279 µM)
Clc1cccc(Cl)c1-c1nc2ncccc2o1	14	
Clc1cccc(-c2nc3cccnc3o2)c1	8	
Cc1ccccc1-c1nc2ncccc2o1	0	
Clc1cccc(-c2nc3ncccc3o2)c1	32	
Fc1ccc(-c2nc3ncccc3o2)cc1	28	
N#Cc1cccc(F)c1-c1nc2ncccc2o1	50	
Fc1cccc(F)c1-c1nc2cccnc2o1	50	

Compound	inhibition in vivo at 30 mg/kg (Rattus norvegicus [1]) [%]	further results
N#Cc1ccccc1-c1nc2cccnc2o1	61	LD50 [2]: 1500 mg/kg; ED50 (Mus musculus): 3 mg; ED50 (Rattus norvegicus [3]): 44 mg/kg; ED50 (Rattus norvegicus [4]): 11 mg/kg; Activity (Rattus norvegicus [5]): Non-toxic; ED50 [6]: 16 µg/mL (≈ 72.3 µM)
Brc1ccccc1-c1nc2ncccc2o1	24	
Fc1ccc(-c2nc3cccnc3o2)cc1	27	
N#Cc1ccc(-c2nc3cccnc3o2)cc1	17	
Cc1ccc(-c2nc3cccnc3o2)cc1	0	
Clc1ccccc1-c1nc2ncccc2o1	38	
Cc1ccc(-c2nc3ncccc3o2)cc1	5	
c1ccc(-c2nc3ncccc3o2)cc1	41	
Fc1cc(Cl)ccc1-c1nc2ncccc2o1	19	
COc1cccc(-c2nc3cccnc3o2)c1	0	
Clc1ccc(-c2nc3ncccc3o2)cc1	24	
Fc1cccc(F)c1-c1nc2ncccc2o1	66	LD50 [2]: 709 mg/kg; ED50 (Mus musculus): 2.4 mg; ED50 (Rattus norvegicus [3]): 7.4 mg/kg; ED50 (Rattus norvegicus [4]): 22 mg/kg; ED50 [6]: 15 µg/mL (≈ 64.6 µM)
Fc1ccc(-c2nc3ncccc3o2)c(F)c1	23	
FC(F)(F)Oc1ccc(-c2nc3ncccc3o2)cc1	0	
CC(=O)Oc1ccccc1C(=O)O [ASPIRIN]		LD50 [2]: 1220 mg/kg; ED50 (Mus musculus): 7 mg; ED50 (Rattus norvegicus [3]): 67 mg/kg; Activity (Rattus norvegicus [8]): Non-toxic; ED50 (Rattus norvegicus [4]): 89 mg/kg; ED50 [6]: 13.4 µg/mL (≈ 74.4 µM)
O=[N+]([O-])c1ccccc1-c1nc2cccnc2o1	57	
Clc1ccccc1-c1nc2cccnc2o1	50	
Fc1ccc(F)c(-c2nc3ncccc3o2)c1	18	
N#Cc1ccccc1-c1nc2ncccc2o1	62	LD50 [2]: 1220 mg/kg; ED50 (Mus musculus): 2 mg; ED50 (Rattus norvegicus [3]): 20 mg/kg; ED50 (Rattus norvegicus [4]): 17 mg/kg; ED50 [6]: 14 µg/mL (≈ 63.3 µM)
O=[N+]([O-])c1ccc(-c2nc3cccnc3o2)cc1	5	
Brc1ccccc1-c1nc2cccnc2o1	31	
N#Cc1cccc(-c2nc3ncccc3o2)c1	21	
CSc1ccccc1-c1nc2ncccc2o1	21	
COc1ccccc1-c1nc2ncccc2o1	9	
Nc1ccccc1-c1nc2cccnc2o1	13	
